The test system of series [1] is Speichelsekretion. Kind of series: Inhibition of pilocarpine-induced salivary secretion in the rat. It is filed as in vivo, männliche THOM-Ratten. The following applies: iv; urethane-anaesthetised rat, i.v.; 2 mg/kg Pilocarpin s.c.; dose reducing saliva volume by 50 %; read-out: -log ED50 Salivationshemmung (converted). The protocol: 2. Speichelsekretionshemmende Wirkung an der Ratte
Nach Lavy und Mulder (Arch. int. Pharmacodyn. 178, 437-445, (1969)) erhielten mit 1,2 g/kg Urethan narkotisierte männliche THOM-Ratten steigende Dosen der Substanz i.v.. Die Speichelsekretion wurde durch s.c. Gabe von 2 mg/kg Pilocarpin ausgelöst. Der Speichel wurde mit Fließpapier aufgesaugt, die von ihm eingenommene Fläche alle 5 Minuten planimetrisch bestimmt. Die Dosis der Substanz, die das Speichelvolumen um 50% verminderte, wurde graphisch ermittelt. Ergebnisse siehe Tabelle 11.

Series [2] concerns vagale Bradykardie (M2). Put plainly: M1/M2 selectivity in the rat: inhibition of bradycardia evoked by electrical vagus stimulation. It is filed as in vivo, männliche THOM-Ratten. The note with it: iv; for ED50: 5 min. The source says: (§1) 1. M1-/M2-Selektivität an der Ratte
(§2) Die Dosis der Substanzen, die entweder die vagale Bradykardie (M2) oder den Blutdruckanstieg (M,) um 50% verminderte, wurde graphisch ermittelt. Ergebnisse siehe Tabelle 11.

Series [3] deals with durch McN-A-343 verursachte Blutdruckanstieg (M,). Put plainly: M1/M2 selectivity in the rat: inhibition of blood pressure rise caused by McN-A-343. It is filed as in vivo, männliche THOM-Ratten. The note with it: for ED50: iv, 5 min, rat, i.v., 5 min after injection, dose reducing the blood pressure rise after 0,3 mg/kg McN-A-343 i.v. (M1) by 50 %, read-out: -log ED50 Blutdruck (converted).
Excerpt: as §1, §2

Series [4] has as its system Acetylcholinwirkung auf Blase. Put plainly: Inhibition of the acetylcholine effect on bladder contraction in the anaesthetised guinea pig. It is filed as in vivo, Meerschweinchen. The following applies: for ED50: Cavia porcellus, 5 min, anaesthetised guinea pig, 10 µg/kg Acetylcholin 5 min after test substance, bladder contraction, read-out: -log ED50 Blase (converted). The protocol: (§3) 3. Hemmung der Acetylcholinwirkung auf Blase, Bronchien und Herzfrequenz des Meerschweinchens
(§4) Am narkotisierten Meerschweinchen wurden 5 Minuten nach Gabe der Prüfsubstanz 10 µg/kg Acetylcholin sowohl intravenös als auch gleichzeitig intraarteriell injiziert. Dabei wurde die Herzfrequenz durch extrakorporale Ableitung des EKG, der Ausatemwiderstand nach Konzett-Rößler und die Kontraktion der freigelegten Harnblase direkt registriert. Für die Hemmung der Acetylcholinwirkung an den untersuchten Organen wurden Dosis-Wirkungskurven aufgenommen und daraus -log EDso-Werte bestimmt. Ergebnisse siehe Tabelle III.

For series [5], the system named is Acetylcholinwirkung auf Bronchien. Kind of series: Inhibition of the acetylcholine effect on bronchi (expiratory resistance, Konzett-Rößler) in the anaesthetised guinea pig. The note with it: for ED50: Cavia porcellus, 5 min, anaesthetised guinea pig, 10 µg/kg Acetylcholin 5 min after test substance, expiratory resistance, read-out: -log ED50 Bronchien (converted). It is filed as in vivo, Meerschweinchen. The protocol: as §3, §4

The test system of series [6] is Acetylcholinwirkung auf Herzfrequenz. Kind of series: Inhibition of the acetylcholine effect on heart rate in the anaesthetised guinea pig. It is filed as in vivo, Meerschweinchen. The following applies: for ED50: Cavia porcellus, 5 min, anaesthetised guinea pig, 10 µg/kg Acetylcholin 5 min after test substance, heart rate (ECG). The protocol:
as §3, §4

A short description of series [7]: Solubility in water (remark in the synthesis example). It is filed as physicochemical.
The mark [8] stands for this setting: rat, i.v., 5 min after injection, dose reducing vagal bradycardia (M2) by 50 %, read-out: -log ED50 Herz (converted).

Like-named read-outs stand apart in the source and are kept apart here.

In general, ED50 refers to the midpoint of the dose-response relation.

Regarding `CCN(CC)CC1CCCCN1CC(=O)N1c2ccccc2C(=O)Nc2cccnc21` (stereo not drawn) [D, 11-[[2-[(Diethylamino)methyl]-1-piperidinyl]acetyl]-5,11-dihydro-6H-pyrido[2,3-b][1,4]-benzodiazepin-6-on, reference compound], the ED50 is 10 µmol/kg in series [1]; 0.38 µmol/kg in series [2] (Rattus norvegicus, read-out: -log ED50 Herz); 2.34 µmol/kg in series [3].
For the compound `O=C1Nc2cccnc2N(C(=O)CCCN2CCCCC2CN2CCCC2)c2ccccc21` (stereo not drawn) [C, 5, 11-Dihydro-11-[4-[2-[(1-pyrrolidinyl)methyl]-1-piperidinyl]-1-oxobutyl]-6H-pyrido[2,3-b][1,4]-benzodiazepin-6-on], the median effective dose (ED50) is 0.316 µmol/kg in series [4]; 1.66 µmol/kg in series [1]; 0.0468 µmol/kg in series [2] (setting [8]); 0.0513 µmol/kg in series [5]; 0.0275 µmol/kg in series [6]; 0.219 µmol/kg in series [3].
Regarding `CCN(CC)CC1CCCCN1CCCC(=O)N1c2ccc(Br)cc2C(=O)Nc2cccnc21` (stereo not drawn) [Beispiel 7, 8-Brom-11-[4-[2-[(diethylamirio)methyl]-1-piperidinyl]-1-oxobutyl]-5,11-dihydro-6H-pyrido[2,3-b][1,4]-benzodiazepin-6-on], the “Löslichkeit in Wasser” value in series [7] was “in Wasser schwer lösliches”.
`CN1CCN(CC(=O)N2c3ccccc3C(=O)Nc3cccnc32)CC1` [E, 5,11-Dihydro-11-[(4-methyl-1-piperazinyl)acetyl]-6H-pyrido[2,3-b][1,4]benzodiazepin-6-on, reference compound]: in series [1], the median effective dose (ED50) was 0.603 µmol/kg.
As to `CCN(CC)CC1COCCN1CCCC(=O)N1c2ccccc2C(=O)Nc2cccnc21` (stereo not drawn) [A, 11-[4-[3-[(Diethylamino)methyl]-4-morpholinyl]-1-oxobutyl]-5,11-dihydro-6H-pyrido[2,3-b][1,4]-benzodiazepin-6-on], the 50% effective dose (ED50) in series [4] is 1 µmol/kg; in series [1], 1.1 µmol/kg; in series [2] (setting [8]) it was 0.0513 µmol/kg; in series [5] it was 0.0708 µmol/kg; in series [6], 0.0282 µmol/kg; in series [3] it was 0.55 µmol/kg. Further, the “Löslichkeit in Wasser” value in series [7] is “leicht löslich in Wasser”.
Consider `CN(C)CCC1CCCCN1CCCC(=O)N1c2ccccc2C(=O)Nc2cccnc21` (stereo not drawn) [Beispiel 4, 5,11-Dihydro-11-[4-[2-[2-(dimethylamino)ethyl]-1-piperidinyl]-1-oxobutyl]-6H-pyrido[2,3-b][1,4]benzodiazepin-6-on], for which the “Löslichkeit in Wasser” value in series [7] is “löslich in Wasser”.
Regarding `CCN(CC)CC1CCCCN1CCCC(=O)N1c2cc(C)ccc2C(=O)Nc2cccnc21` (stereo not drawn) [B, 11-[4-[2-[(Diethylamino)methyl]-1-piperidinyl]-1-oxobutyl]-5,11-dihydro-9-methyl-6H-pyrido[2,3-b][1,4]benzodiazepin-6-on], the ED50 in series [4] is 0.759 µmol/kg; in series [1], 1.12 µmol/kg; in series [2] (setting [8]), 0.0617 µmol/kg; in series [5], 0.151 µmol/kg; in series [6] it was 0.0708 µmol/kg; in series [3] it was 0.501 µmol/kg.
Consider `CN1C2CCC1CC(OC(=O)C(CO)c1ccccc1)C2` (racemic) [F, Atropin, reference compound], for which, in series [4] (in vivo), the “-log ED50 Blase” value was 7,03 Molkg^-1. In addition, the “-log ED50 Herz” value is given as 7,94 Mkg^-1 in series [2] (in vivo) and 7,70 Molkg^-1 in series [6] (in vivo). Moreover, the “-log ED50 Bronchien” value in series [5] (in vivo) is 7,96 Molkg^-1. Besides, the “-log ED50 Blutdruck” value in series [3] (in vivo) is listed as 7,34 Mkg^-1.

These data come from patent EP0345629A2, “Condensed diazepinones, process for their preparation and medicaments containing them” (Dr. Karl Thomae GmbH, priority 1988, dated 1989).
